US9975888B2, “Aryl linked imidazole and triazole derivatives and methods of use thereof for improving the pharmacokinetics of a drug” (MERCK SHARP & DOHME CORP., priority 2013, dated 2018)

Experiments:
Format in all cases: biochemical
CYP1A2 = biological target: T1, CYP1A2 (Homo sapiens, UniProt P05177); test: Cocktail assay for CYPs, phenacetin O-deethylation (CYP1A2), human liver microsomes; details: 10 μM phenacetin, 0.1 mg/mL human liver microsomes, 10 min at 37° C.; read-out: CYP IC50 (nM) 1A2
T1 construct: 0.1 mg/mL protein human liver microsomes (BD Gentest); tissue BD Gentest; host or cells: human liver microsomes
T1 sequence (P05177 1-516): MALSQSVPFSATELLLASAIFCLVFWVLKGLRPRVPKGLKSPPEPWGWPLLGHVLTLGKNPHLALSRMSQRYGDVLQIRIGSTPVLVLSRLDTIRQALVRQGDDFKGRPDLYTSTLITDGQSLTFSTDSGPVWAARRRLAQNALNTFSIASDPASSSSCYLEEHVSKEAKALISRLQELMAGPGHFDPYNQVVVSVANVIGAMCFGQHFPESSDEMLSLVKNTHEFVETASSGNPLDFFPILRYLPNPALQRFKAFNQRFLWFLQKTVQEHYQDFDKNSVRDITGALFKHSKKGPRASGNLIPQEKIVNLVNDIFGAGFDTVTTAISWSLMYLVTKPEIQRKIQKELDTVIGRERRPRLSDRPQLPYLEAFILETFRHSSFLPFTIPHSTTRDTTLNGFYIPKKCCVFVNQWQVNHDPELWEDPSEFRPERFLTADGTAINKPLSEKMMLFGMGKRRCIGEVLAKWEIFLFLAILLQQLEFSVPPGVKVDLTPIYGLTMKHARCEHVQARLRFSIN
Method in brief: (§1)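 Pooled human liver microsomes (0.1 mg/mL) with a probe cocktail of 10 μM phenacetin, 5 μM dextromethorphan and 2 μM midazolam plus NADPH, pH 7.4, 10 min at 37° C. Each metabolite was quantified by LC/MS/MS against a tolbutamide internal standard. IC50 came from % inhibition at 6 concentrations (e.g. 0.0032–10 μM) by non-linear regression.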

CYP2C9 = biological target: T2, CYP2C9 (Homo sapiens, UniProt P11712); test: Cocktail assay for CYPs, diclofenac 4′-hydroxylation (CYP2C9), human liver microsomes; details: 5 μM diclofenac, 0.1 mg/mL human liver microsomes, 10 min at 37° C.; read-out: CYP IC50 (nM) 2C9
T2 construct: 0.1 mg/mL protein human liver microsomes (BD Gentest); tissue BD Gentest; host or cells: human liver microsomes
Method in brief: (§2)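 Pooled human liver microsomes (0.1 mg/mL) with probe cocktail incl. 5 μM diclofenac (CYP2C9) and 30 μM mephenytoin (CYP2C19), 1 mM NADPH, pH 7.4 phosphate buffer, 10 min at 37° C. Metabolites quantified by LC/MS/MS against internal standard; % inhibition versus no-inhibitor control, IC50 by non-linear regression.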

CYP2C19 = biological target: T3, CYP2C19 (Homo sapiens, UniProt P33261); test: Cocktail assay for CYPs, mephenytoin 4′-hydroxylation (CYP2C19), human liver microsomes; details: 30 μM mephenytoin, 0.1 mg/mL human liver microsomes, 10 min at 37° C.; read-out: CYP IC50 (nM) 2C19
T3 construct: 0.1 mg/mL protein human liver microsomes (BD Gentest); tissue BD Gentest; host or cells: human liver microsomes
Method in brief: as §2

CYP2D6 = biological target: T4, CYP2D6 (Homo sapiens, UniProt P10635); test: Cocktail assay for CYPs, dextromethorphan O-demethylation (CYP2D6), human liver microsomes; details: 5 μM dextromethorphan, 0.1 mg/mL human liver microsomes, 10 min at 37° C.; read-out: CYP IC50 (nM) 2D6
T4 construct: 0.1 mg/mL protein human liver microsomes (BD Gentest); tissue BD Gentest; host or cells: human liver microsomes
Method in brief: as §1

CYP3A4 [1] = biological target: T5, CYP3A4 (Homo sapiens, UniProt P08684); test: Cocktail assay for CYPs, midazolam 1′-hydroxylation (CYP3A4), human liver microsomes; set-up: 0.1 mg/mL protein human liver microsomes (BD Gentest); tissue BD Gentest; host or cells: human liver microsomes; details: 2 μM midazolam, 0.1 mg/mL human liver microsomes, 10 min at 37° C.; read-out: CYP IC50 (nM) 3A4 (MDZ)
Method in brief: as §1
Target sequence in this assay (P08684 whole entry): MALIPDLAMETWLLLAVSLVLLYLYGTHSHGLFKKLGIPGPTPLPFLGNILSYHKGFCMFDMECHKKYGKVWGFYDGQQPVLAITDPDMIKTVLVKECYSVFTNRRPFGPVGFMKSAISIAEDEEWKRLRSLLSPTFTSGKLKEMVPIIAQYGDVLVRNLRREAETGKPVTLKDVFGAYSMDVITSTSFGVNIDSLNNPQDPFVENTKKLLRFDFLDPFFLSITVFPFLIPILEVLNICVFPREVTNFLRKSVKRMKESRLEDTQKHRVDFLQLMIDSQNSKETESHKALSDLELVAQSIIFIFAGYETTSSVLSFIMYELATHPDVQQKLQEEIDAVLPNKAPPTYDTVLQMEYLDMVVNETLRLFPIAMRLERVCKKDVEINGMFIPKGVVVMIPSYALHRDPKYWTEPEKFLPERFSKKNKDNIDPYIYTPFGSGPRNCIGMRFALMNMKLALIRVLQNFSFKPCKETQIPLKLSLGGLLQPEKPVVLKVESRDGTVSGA

CYP3A4 [2] = biological target: T5, CYP3A4; test: IC50 vs CYP3A by inhibition of lopinavir metabolism in human liver microsomes; set-up: 0.01 mg/mL protein human liver microsomes (BD Gentest); tissue BD Gentest; host or cells: human liver microsomes; details: 1.5 μM lopinavir, 0.01 mg/mL human liver microsomes, 8 min at 37° C.; read-out: CYP IC50 (nM) 3A4 (LPV)
Method in brief: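 Human liver microsomes (0.01 mg/mL) with 1.5 μM lopinavir, 1 mM NADPH, 3.3 mM MgCl2 in 100 mM potassium phosphate pH 7.4, 8 min at 37 °C, six compound concentrations. Summed M2/M3/M4 hydroxy metabolites quantified by LC/MS/MS against tolbutamide; % inhibition normalised between no-inhibitor and 5 μM ketoconazole controls, IC50 by non-linear regression.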
Target sequence in this assay (P08684 2-503): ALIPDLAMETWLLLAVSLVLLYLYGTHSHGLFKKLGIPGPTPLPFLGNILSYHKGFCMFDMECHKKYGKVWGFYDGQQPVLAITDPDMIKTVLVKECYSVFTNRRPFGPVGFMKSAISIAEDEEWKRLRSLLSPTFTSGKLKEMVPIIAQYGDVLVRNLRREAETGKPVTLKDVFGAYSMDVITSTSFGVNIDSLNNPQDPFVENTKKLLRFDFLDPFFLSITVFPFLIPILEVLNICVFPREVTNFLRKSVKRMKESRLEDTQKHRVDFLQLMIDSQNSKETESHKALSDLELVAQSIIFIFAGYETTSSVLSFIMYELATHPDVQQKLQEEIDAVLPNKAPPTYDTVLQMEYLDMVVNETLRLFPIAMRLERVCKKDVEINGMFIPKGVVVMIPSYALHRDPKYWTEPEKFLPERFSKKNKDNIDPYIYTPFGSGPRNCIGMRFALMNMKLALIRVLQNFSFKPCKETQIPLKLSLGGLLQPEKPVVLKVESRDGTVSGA

T2 sequence (P11712 whole entry): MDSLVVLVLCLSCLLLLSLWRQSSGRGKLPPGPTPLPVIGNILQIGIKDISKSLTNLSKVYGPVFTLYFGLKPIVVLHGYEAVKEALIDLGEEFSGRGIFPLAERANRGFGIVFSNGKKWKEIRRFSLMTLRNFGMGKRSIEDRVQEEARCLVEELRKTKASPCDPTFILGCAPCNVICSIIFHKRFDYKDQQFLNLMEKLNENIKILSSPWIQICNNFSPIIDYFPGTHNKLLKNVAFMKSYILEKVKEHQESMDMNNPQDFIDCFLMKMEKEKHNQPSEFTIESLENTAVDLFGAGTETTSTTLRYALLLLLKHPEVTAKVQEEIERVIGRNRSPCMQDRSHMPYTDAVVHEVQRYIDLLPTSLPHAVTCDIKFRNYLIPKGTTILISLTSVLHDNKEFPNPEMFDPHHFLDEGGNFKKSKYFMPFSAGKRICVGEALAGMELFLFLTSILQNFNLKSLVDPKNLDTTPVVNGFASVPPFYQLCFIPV
T3 sequence (P33261 whole entry): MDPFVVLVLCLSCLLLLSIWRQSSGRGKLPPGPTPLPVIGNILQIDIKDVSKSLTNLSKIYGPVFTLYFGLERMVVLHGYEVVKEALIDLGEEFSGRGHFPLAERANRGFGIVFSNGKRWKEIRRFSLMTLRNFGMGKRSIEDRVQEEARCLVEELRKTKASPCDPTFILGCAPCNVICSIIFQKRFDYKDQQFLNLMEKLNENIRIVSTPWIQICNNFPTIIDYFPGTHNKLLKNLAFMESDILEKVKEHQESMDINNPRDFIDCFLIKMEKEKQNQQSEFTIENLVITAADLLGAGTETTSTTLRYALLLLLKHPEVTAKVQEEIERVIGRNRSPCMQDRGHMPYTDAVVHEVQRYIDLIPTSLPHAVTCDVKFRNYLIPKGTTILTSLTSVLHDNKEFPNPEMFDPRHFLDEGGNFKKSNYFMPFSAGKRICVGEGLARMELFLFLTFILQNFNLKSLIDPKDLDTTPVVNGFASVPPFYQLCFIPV
T4 sequence (P10635 whole entry): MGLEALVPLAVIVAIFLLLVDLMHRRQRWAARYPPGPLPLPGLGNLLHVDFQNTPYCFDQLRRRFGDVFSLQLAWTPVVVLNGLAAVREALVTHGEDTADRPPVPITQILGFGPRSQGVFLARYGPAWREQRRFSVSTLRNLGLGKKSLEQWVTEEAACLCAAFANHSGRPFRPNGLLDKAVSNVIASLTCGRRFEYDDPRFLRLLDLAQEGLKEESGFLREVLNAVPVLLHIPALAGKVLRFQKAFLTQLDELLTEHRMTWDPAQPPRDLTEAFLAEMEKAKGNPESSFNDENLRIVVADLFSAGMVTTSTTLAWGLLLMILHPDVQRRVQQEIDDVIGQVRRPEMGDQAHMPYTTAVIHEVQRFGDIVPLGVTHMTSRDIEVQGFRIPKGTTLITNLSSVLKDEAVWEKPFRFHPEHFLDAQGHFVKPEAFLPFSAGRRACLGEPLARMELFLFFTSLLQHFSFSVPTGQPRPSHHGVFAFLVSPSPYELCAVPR

SMILES	IC50 (CYP1A2) [nM]	IC50 (CYP2C9) [nM]	IC50 (CYP2C19) [nM]	IC50 (CYP2D6) [nM]	IC50 (CYP3A4 [1]) [nM]	IC50 (CYP3A4 [2]) [nM]
O=C(c1cccnc1)N1CCCC1c1ccccc1-c1cncn1CCc1ccc(F)cc1 (single isomer, unassigned) [Compound 42b, (R or S)-(2-(2-(1-(4-fluorophenethyl)-1H-imidazol-5-yl)phenyl)pyrrolidin-1-yl) (pyridin-3-yl) methanone]	> 10000	> 10000	> 10000	> 10000	13.1	9.3
CC(=O)Nc1ncc(S(=O)(=O)NCc2ccccc2-c2cncn2CCc2ccc(F)cc2)s1 [Compound 18, N-(5-(N-(2-(1-(4-fluorophenethyl)-1H-imidazol-5-yl)benzyl)sulfamoyl)thiazol-2-yl) acetamide]	> 10000	> 10000	2930	7180	15.8	18.6
Fc1ccc(CCn2cncc2-c2ccccc2C2CCCN2)cc1 (stereo not drawn) [Compound 40, 1-(4-fluorophenethyl)-5-(2-(pyrrolidin-2-yl)phenyl)-1H-imidazole]	> 10000	4560	> 10000	3300	43.4	27.4
O=S(=O)(c1ccc(N2CCOCC2)nc1)N1CCc2c(cccc2-c2cncn2CCc2ccc(F)cc2)C1 [Compound 60, 4-(5-((5-(1-(4-fluorophenethyl)-1H-imidazol-5-yl)-3,4-dihydroisoquinolin-2(1H)-yl)sulfonyl)pyridin-2-yl) morpholine]	> 10000	1350	53	2210	6.2	1.8
O=C(NCc1ccc(S(=O)(=O)N2CCCC2c2cccc(-c3cncn3CCc3ccc(F)cc3)c2)s1)c1ccccc1 (single isomer, unassigned) [Compound 55a, (R or S)-N-((5-((2-(3-(1-(4-fluorophenethyl)-1H-imidazol-5-yl)phenyl)pyrrolidin-1-yl)sulfonyl)thiophen-2-yl)methyl) benzamide]	1080	61.6	219	139	6.63	0.84
O=S(=O)(NCc1ccccc1-c1cncn1CCc1ccc(F)cc1)c1cccnc1 [Compound 17, N-(2-(1-(4-fluorophenethyl)-1H-imidazol-5-yl)benzyl)pyridine-3-sulfonamide]	> 10000	> 10000	> 10000	5200	10.5	35.9
O=C(C1CC1)N1CCCC1c1cccc(-c2cncn2CCc2ccc(F)cc2)c1 (stereo not drawn) [Compound 47, cyclopropyl(2-(3-(1-(4-fluorophenethyl)-1H-imidazol-5-yl)phenyl)pyrrolidin-1-yl)methanone]	2080	2330	1010	2500	14.9	16.7
O=C(Oc1ccc(Cl)cc1)N1CCCC1c1ccccc1-c1cncn1CCc1ccc(F)cc1 (stereo not drawn) [Compound 36, 4-chlorophenyl 2-(2-(1-(4-fluorophenethyl)-1H-imidazol-5-yl)phenyl) pyrrolidine-1-carboxylate]	7690	1900	1680	3700	19.4	7
O=C(c1ccc(N2CCOCC2)nc1)N1CCCC1c1cccc(-c2cncn2CCc2ccc(F)cc2)c1 (stereo not drawn) [Compound 52, (2-(3-(1-(4-fluorophenethyl)-1H-imidazol-5-yl)phenyl)pyrrolidin-1-yl) (6-morpholino-pyridin-3-yl) methanone]	6500	1970	249	2460	5.76	6

Now from value to molecule:

IC50 (CYP1A2) [nM]	IC50 (CYP2C9) [nM]	IC50 (CYP2C19) [nM]	IC50 (CYP2D6) [nM]	IC50 (CYP3A4 [1]) [nM]	IC50 (CYP3A4 [2]) [nM]	SMILES
> 10000	> 10000	> 10000	> 10000	65	80	CN1CCN(c2ncc(S(=O)(=O)NC(c3ccccc3)c3ccccc3-c3cncn3CCc3ccc(F)cc3)s2)CC1 (stereo not drawn) [Compound 5, N-((2-(1-(4-fluorophenethyl)-1H-imidazol-5-yl)phenyl) (phenyl)methyl)-2-(4-methylpiperazin-1-yl)thiazole-5-sulfonamide]
> 10000	684	148	2100	9	2.4	CN1CCN(c2ncc(S(=O)(=O)N3CCCC3c3ccc(-c4cncn4CCc4ccc(F)cc4)cc3)s2)CC1 (stereo not drawn) [Compound 9, 5-((2-(4-(1-(4-fluorophenethyl)-1H-imidazol-5-yl)phenyl)pyrrolidin-1-yl)sulfonyl)-2-(4-methylpiperazin-1-yl)thiazole]
> 10000	1690	> 10000	4620	9.6	4.5	O=S(=O)(c1cnc(N2CCN3C[C@H](O)C[C@H]3C2)s1)N1CCCC1c1ccccc1-c1cncn1CCc1ccc(F)cc1 (single isomer, unassigned) [Compound 22b, (7R,8aS)-2-(5-(((R or S)-2-(2-(1-(4-fluoro-phenethyl)-1H-imidazol-5-yl)phenyl)pyrrolidin-1-yl)sulfonyl)thiazol-2-yl) octahydro-pyrrolo[1,2-a] pyrazin-7-ol]
> 10000	> 10000	> 10000	> 10000	18.8	37.7	CC(=O)Nc1ncc(S(=O)(=O)N2CCCC2c2ccccc2-c2cncn2C)s1 (stereo not drawn) [Compound 30, N-(5-((2-(2-(1-methyl-1H-imidazol-5-yl)phenyl)pyrrolidin-1-yl)sulfonyl)thiazol-2-yl) acetamide]
367	365	331	2200	10.4	3.7	O=S(=O)(c1ccc(N2CCC(O)CC2)nc1)N1CCCC1c1cccc(-c2cncn2CCc2ccc(F)cc2)c1 (single isomer, unassigned) [Compound 57a, (R or S)-1-(5-((2-(3-(1-(4-fluorophenethyl)-1H-imidazol-5-yl)phenyl)pyrrolidin-1-yl)sulfonyl)pyridin-2-yl) piperidin-4-ol]
> 10000	> 10000	> 10000	> 10000	10.7	11.1	O=C(C1CCOCC1)N1CCCC1c1ccccc1-c1cncn1CCc1ccc(F)cc1 (stereo not drawn) [Compound 41, (2-(2-(1-(4-fluorophenethyl)-1H-imidazol-5-yl)phenyl)pyrrolidin-1-yl)(tetrahydro-2H-pyran-4-yl)methanone]
3820	1860	3260	2930	8.3	7.6	O=S(=O)(c1ccc(N2CCOCC2)nc1)N1CCCC1c1ccccc1-c1cncn1CCc1ccc(F)cc1 (stereo not drawn) [Compound 29, 4-(5-((2-(2-(1-(4-fluorophenethyl)-1H-imidazol-5-yl)phenyl)pyrrolidin-1-yl)sulfonyl)pyridin-2-yl)morpholine]
> 10000	> 10000	> 10000	> 10000	32.5	29.5	Cn1cncc1-c1ccccc1C1CCCN1S(=O)(=O)c1cnc(N2CCN3C[C@H](O)C[C@H]3C2)s1 (stereo partly drawn) [Compound 24, (7R,8aS)-2-(5-((2-(2-(1-methyl-1H-imidazol-5-yl)phenyl)pyrrolidin-1-yl)sulfonyl)thiazol-2-yl)octahydro-pyrrolo[1,2-a] pyrazin-7-ol]
